For series [1], the target named is T1, recombinant HIV-1 RT K103N/E478Q (Human immunodeficiency virus type 1 group M subtype B, UniProt P03366, E1077Q/K702N).
T1 construct: performed by recombinant HIV-1 RT:s with defined
The note with it: binding 90 min at 33° C. Here is the method:
(§1) (iii) Protocol for RT binding inhibition (BIC) assay: The study was performed in a modified DNA polymerase assay. The inhibitors were serially diluted in five steps, enzyme dilution was added and the enzyme/inhibitor mixtures were incubated for 30 minutes at 33° C. Aliquots of the enzyme/inhibitor mixture were transferred to each well of a microtiter plate containing either immobilised primer, or primer/template. The enzyme was allowed to bind to the immobilised polymer for 90 min at 33° C. The amount of RT used was standardised to an activity corresponding to 40-60 pg (3.3-5.0×10^−16 mol) reference HIV-1 RT per well. The plates were then washed to remove unbound enzyme whereupon the amount of bound enzyme was determined by addition of the appropriate reaction solution for polymerisation (i e a reaction solution devoid of primer for studies of primer binding and a reaction solution devoid of both primer and template for studies of binding to primed template). The polymerase reaction was allowed to proceed for 3 hours at 33° C., whereupon the reaction was terminated by a wash of the plate.
(§2) The capacity of the indicated substances to inhibit the binding to primer or to primed DNA template of a panel of recombinant HIV 1 subtype B RTs was studied according to “Protocol for RT binding inhibition (BIC) assay” (protocol (iii) above).

Series [2] concerns the target recombinant HIV-1 RT, ref RT (HIV type B, clone BH 10) (Human immunodeficiency virus type 1 group M subtype B, UniProt P03366). As to conditions: read-out: Inhibition of binding to primer (BIC50), immobilised primer, binding 90 min at 33° C. The method, then: as §1, §2
Series [3] addresses T1, recombinant HIV-1 RT K103N/E478Q. In words: RT assay: inhibition of RNA dependent DNA polymerisation (modified Lenti RT assay). It is filed as biochemical. The note with it: read-out: IC50 of indicated inhibitor in RT assay. Here is the method: (§3) The flourimetric RT assay (Cavidi® Lenti RT activity kit), available from Cavidi Tech, Uppsala, Sweden, was used for the determination of RT activity. In short, poly(rA) covalently bound to the wells of a 96 well microtiter plate serves as template for the incorporation of 5-bromodeoxyuridine 5′-triphosphate (BrdUTP) during the reverse transcription step at 33° C. The amount of bromodeoxyuridine monophosphate (BrdUMP) incorporated into DNA is detected with an alkaline phosphatase (Ap) conjugated, anti-BrdU monoclonal antibody. An Ap substrate, 4-methylumbelliferyl phosphate, is finally used for fluorimetric product detection.
(§4) (i) Protocol for determination of inhibition of RNA dependent DNA polymerisation: The inhibition studies were performed in a modified Lenti RT assay. […] The enzyme reaction was initiated by addition of 100 μl aliquots of the enzyme/inhibitor mixture to each well of a microtiter plate containing 100 μl RT reaction mixture per well. The polymerase reaction was allowed to proceed for 3 hours at 33° C., whereupon the reaction was terminated by a wash of the plate. […] The amount of RT used was standardised to an activity corresponding to 90-130 pg (7-10×10^−16 mol) reference HIV-1 RT per well
(§5) The capacity of the indicated substances to inhibit the enzymes in a panel of recombinant HIV 1 subtype B RTs was studied according to “Protocol for determination of inhibition of RNA dependent DNA polymerisation” (protocol (i) above). The final nucleotide substrate (BrdUTP) concentration was 0.35 μM, and the primer (odT22) amount was 0.03 ng per well.

Series [4] concerns the target T2, recombinant HIV-1 RT L100I (Human immunodeficiency virus type 1 group M subtype B, UniProt P03366, L699I).
T2 construct: performed by recombinant HIV-1 RT:s with defined
Described as above. It is filed as biochemical. As to conditions: read-out: IC50 of indicated inhibitor in RT assay. The method, then: as §3, §4, §5

The target in series [5] is T3, recombinant HIV-1 RT T215Y (Human immunodeficiency virus type 1 group M subtype B, UniProt P03366, T814Y).
T3 construct: performed by recombinant HIV-1 RT:s with defined
The description is as above. As to conditions: read-out: IC50 of indicated inhibitor in RT assay. It is filed as biochemical. The method, then: as §3, §4, §5

For series [6], the system named is Mut1 (RNase H inactive mutant of HIV-1 RT). In words: Gel mobility shifts in native polyacrylamide gel electrophoresis (PAGE). The note with it: native 20% PAGE; ammonium sulphate up to […]. It is filed as binding. The source says:
In the following experiment, the terms “34-mer” and “35-mer” refer to SEQ ID NO:3 (produced in example A1 above) and SEQ ID NO:4 (produced in example A2 above), respectively. […] Natural RT molecules have an RNase H activity which normally cleaves RNA molecules. […] This mutant is produced according to the method given in Schatz, O., Cromme, F. V., Grüninger-Leitch, F. and Le Grice, S. F. J., Febs Letter. Vol.257, No.2 p.311-314. This RT-mutant is further on referred to as Mut1. The following experiments are carried out:
2. Gel mobility shifts in polyacrylamide gel electrophoresis (PAGE) experiments.
a) Native 20% PAGE gel is run at 4-5° C. Samples are incubated at 4° C. in 50 mM hepes buffer and 5 mM magnesium chloride and varying salt concentrations as indicated below.
Samples are incubated for 90 min at 4° C. prior to a further 10 min incubation at 4° C. with ammonium sulphate and/or KCl. Samples applied to lanes 4 and 5 have twice the amount of 34-mer used for the other samples.
b) Native 20% PAGE gel run at 4-5° C. Samples are incubated at 4° C. in 50 mM hepes buffer and 5 mM magnesium chloride, with varying concentrations of ammonium sulphate.
Native 20% PAGE gel is run at 4-5° C. Samples are incubated at 4° C. in 50 mM hepes buffer, 15 mM manganese sulphate, 1 mM EDTA and 0.25 mM EGTA.
Samples are incubated 10 min at room temperature prior to a 60 min incubation at 4° C. One μl of sample solution is applied per lane. Electrophoresis is conducted with up to 400 volts while cooling to approximately 4° C. After 0.209 kWh the gel is silver stained.

[7] abbreviates: enzyme/inhibitor preincubated 30 minutes at 33° C., BrdUTP 0.35 μM, odT22 0.03 ng per well, 3 hours.
[8] abbreviates: RT and inhibitor added directly to the assay mixture without preincubation.

Read-outs that look alike come from different tables or passages of the source. Strand notation (5' to 3'): a small letter for the sugar, then the base; units joined by * are phosphorothioate-linked, units joined directly phosphodiester-linked; [ ] holds rarer units or linkages, { } end groups; capitals alone tell only the bases. r = 2'-OH (RNA)

As for “substance 198: 15-mer RNA phosphorothioate with the base sequence of tRNALys3 anticodon stem and loop, SEQ ID NO:7 (rC*rA*rG*rA*rC*rU*rU*rU*rU*rA*rA*rU*rC*rU*rG) [reference compound]”, the IC50 came out at 400 nM in series [1] (immobilised primer, read-out: Inhibition of binding to primer (BIC50)); 1000 nM in series [1] (immobilised primer/template, read-out: Inhibition of binding to template/primer (BIC50)); 100 nM in series [2]; 1100 nM in series [3] (setting [7]); 450 nM in series [4] (setting [7]); 340 nM in series [5] (setting [7]). Also, the “Complex with Mut1 at high salt concentrations” value in series [6] is on record as “dissociates from Mut1”.

Regarding “substance 199: 35-mer RNA molecule having the sequence set out in SEQ ID NO:5; similar to SEQ ID NO:4 with some naturally occurring nucleotide derivatives (GCUCAGNCGGNAGAGCANCAGACUUUUAANCUGAN; RNA, backbone, methylation of C and the base at N not given here; naturally occurring modified nucleosides at n positions)”, the IC50 in series [3] (setting [8]) came out at 9.8 nM; in series [3] (setting [7]), 10 nM; in series [4] (setting [8]), 7.4 nM; in series [4] (setting [7]), 10 nM; in series [5] (setting [8]) it was 9.3 nM; in series [5] (setting [7]), 11 nM.

Source of the values: patent US20040053872A1, “New sequences” (priority 2000, published 2004).
